The experiment has as its system COLO 201. The experiment in a line: Cytotoxicity against human COLO201 cells assessed as inhibition of cell growth incubated for 24 hrs by WST-1 assay. It is filed as functional, cell-based. Conditions: for IC50: COLO 201, 24 h.

SMILES strings stand for the structures. The source made the active and inactive calls. The calls are words filed in the database; no cut-off is given here.

With `Cc1ccc(O)c2c1C(=O)[C@](C)(Oc1ccc(O)c3c1[C@@H](O)CCC31Oc3cccc4cccc(c34)O1)O2`, the IC50 came out at 23 µM.
The same measure, in the same setting: the value for `Cc1ccc(O)c2c1C(=O)[C@@](C)(Oc1ccc(O)c3c1[C@@H](O)CCC31Oc3cccc4cccc(c34)O1)O2` was 17 µM.
In the case of `C[C@@H]1C=C[C@@]2(O)[C@@H]3OC(=O)[C@@](O)([C@H]13)[C@@H]2Oc1ccc(O)c2c1C(=O)CCC21Oc2cccc3cccc(c23)O1`, the outcome was inactive.
Regarding `Oc1ccc(O)c2c1[C@@H](O)CCC21Oc2cccc3cccc(c23)O1`, the result was inactive.
On to `CC[C@@]1(O)C(=O)OCc2c1cc1n(c2=O)Cc2cc3ccccc3nc2-1` [CAMPTOTHECIN], for which the IC50 amounted to 34 µM.

The values are drawn from ChEMBL document CHEMBL6127108, “Triantaspirols A-C and Paraphaeolactone Cs from Paraphaeosphaeria sp. KT4192: Sensitivity of CP3 in Distinguishing Close NMR Signals” (J Nat Prod, 2024).
